In patent publication US20230391760A1, “HETEROCYCLIC GLP-1 AGONISTS” (Gasherbrum Bio, Inc., priority 2020, published 2023) one finds EC50 data, which are given here for 22 compounds.

For this assay, the target named is GLP-1 Receptor (Homo sapiens, UniProt P43220). The assay is described as follows: GLP-1R agonist cAMP stimulation assay (HEK293/GLP1R/CRE-LUC cells, cAMP dynamic 2 Kit). The class given is cell-based. As to conditions: HEK293/CRE-Luc cell line stably expressing the GLP-1 Receptor, 30 min at 37° C. In short, it runs like this:
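cAMP measured by HTRF competition (d2-labelled cAMP with cryptate antibody, 1 h, room temperature, protected from light). Before that, GLP1R/CRE-Luc HEK293 cells (1000/well) were exposed for 30 min at 37 °C to half-log compound dilutions in DPBS containing IBMX 0.5 mM and BSA 0.1%.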

Chain of GLP-1 Receptor (P43220 24-463, species assumed): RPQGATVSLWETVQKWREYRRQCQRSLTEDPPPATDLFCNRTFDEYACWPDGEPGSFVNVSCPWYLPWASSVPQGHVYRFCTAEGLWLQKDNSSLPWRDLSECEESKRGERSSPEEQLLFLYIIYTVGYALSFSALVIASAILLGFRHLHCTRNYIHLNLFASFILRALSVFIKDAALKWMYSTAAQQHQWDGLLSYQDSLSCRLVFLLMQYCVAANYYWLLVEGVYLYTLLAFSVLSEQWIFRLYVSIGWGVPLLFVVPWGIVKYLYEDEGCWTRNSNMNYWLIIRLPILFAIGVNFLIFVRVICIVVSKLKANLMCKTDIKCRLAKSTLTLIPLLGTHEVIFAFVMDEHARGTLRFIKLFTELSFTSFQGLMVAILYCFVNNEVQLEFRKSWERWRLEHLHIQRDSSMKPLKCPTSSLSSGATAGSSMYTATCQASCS

On to `Cc1nnc(-c2cnc3c(c2)nc(CN2CCC(c4cccc5c4O[C@@](C)(c4ccc(Cl)cc4F)O5)CC2)n3C[C@@H]2CCO2)[nH]1` [Compound 292a, 4-[(2S)-2-(4-chloro-2-fluorophenyl)-2-methyl-2H-1,3-benzodioxol-4-yl]-1-{[6-(5-methyl-4H-1,2,4-triazol-3-yl)-3-{[(2S)-oxetan-2-yl]methyl}-3H-imidazo[4,5-b]pyridin-2-yl]methyl}piperidine], for which the half-maximal effective concentration (EC50) came out at 0.1 nM. In the case of “4-[2-(4-chloro-2-fluorophenyl)-2-methyl-2H-1,3-benzodioxol-4-yl]-1-[(3-{[(2S)-oxolan-2-yl]methyl}-6-[5-(trifluoromethyl)-4H-1,2,4-triazol-3-yl]-3H-imidazo[4,5-b]pyridin-2-yl)methyl]piperidine [Compound 247a]”, the concentration giving a half-maximal response (EC50) is 3.4 nM. In turn, `Cc1nnc(-c2ccc3c(c2)nc(CN2CCC(c4cccc5c4O[C@@](C)(c4ccc(C(N)=O)cc4F)O5)CC2)n3C[C@@H]2CCO2)[nH]1` [Compound 410b, 3-fluoro-4-[(2S)-2-methyl-4-(1-{[5-(5-methyl-4H-1,2,4-triazol-3-yl)-1-{[(2S)-oxetan-2-yl]methyl}-1H-1,3-benzodiazol-2-yl]methyl}piperidin-4-yl)-2H-1,3-benzodioxol-2-yl]benzamide] yielded an EC50 of 0.082 nM. Regarding `Fc1cc(Cl)ccc1COc1cccc(C2CCN(Cc3nc4cc(-c5nnc(C(F)(F)F)[nH]5)ncc4n3C[C@@H]3CCO3)CC2F)n1` (stereo partly drawn) [Compound 499a, 2-[(4-chloro-2-fluorophenyl)methoxy]-6-[(3,4-trans)-3-fluoro-1-[(3-{[(2S)-oxetan-2-yl]methyl}-6-[5-(trifluoromethyl)-4H-1,2,4-triazol-3-yl]-3H-imidazo[4,5-c]pyridin-2-yl)methyl]piperidin-4-yl]pyridine], the EC50 was 0.04 nM. Compound `CC1(c2ccc(Cl)cc2F)Oc2ccc(F)c(C3CCN(Cc4nc5cc(-c6nnc(C(F)(F)F)[nH]6)ncc5n4C[C@@H]4CCO4)CC3)c2O1` (stereo partly drawn) [Compound 458a, 4-[2-(4-chloro-2-fluorophenyl)-5-fluoro-2-methyl-2H-1,3-benzodioxol-4-yl]-1-[(3-{[(2S)-oxetan-2-yl]methyl}-6-[5-(trifluoromethyl)-4H-1,2,4-triazol-3-yl]-3H-imidazo[4,5-c]pyridin-2-yl)methyl]piperidine] had a half-maximal effective concentration (EC50) of 0.3 nM. In turn, `N#Cc1ccc(COc2cccc(C3CCN(Cc4nc5cc(-c6nnc(C(F)(F)F)[nH]6)nnc5n4C[C@@H]4CCO4)CC3)n2)c(F)c1` [Compound 487a, 3-fluoro-4-{[(6-{1-[(7-{[(2S)-oxetan-2-yl]methyl}-3-[5-(trifluoromethyl)-4H-1,2,4-triazol-3-yl]-7H-imidazo[4,5-c]pyridazin-6-yl)methyl]piperidin-4-yl}pyridin-2-yl)oxy]methyl}benzonitrile] had an EC50 of 0.029 nM. Under `O=C(Nc1ccc2c(c1)nc(CN1CCC(c3cccc(OCc4ccc(Cl)cc4F)n3)CC1)n2C[C@@H]1CCO1)C1CCOCC1` [Compound 153a, N-{2-[(4-{6-[(4-chloro-2-fluorophenyl)methoxy]pyridin-2-yl}piperidin-1-yl)methyl]-1-{[(2S)-oxetan-2-yl]methyl}-1H-1,3-benzodiazol-5-yl}oxane-4-carboxamide] stands 0.3 nM; under `Cc1cc(=O)[nH]c(-c2cc3nc(CN4CCC(c5cccc(OCc6ccc(Cl)cc6F)n5)CC4)n(C[C@@H]4CCO4)c3cn2)n1` [Compound 453a, 2-{2-[(4-{6-[(4-chloro-2-fluorophenyl)methoxy]pyridin-2-yl}piperidin-1-yl)methyl]-3-{[(2S)-oxetan-2-yl]methyl}-3H-imidazo[4,5-c]pyridin-6-yl}-6-methyl-3,4-dihydropyrimidin-4-one], 1.9 nM; under `COC1(C(=O)Nc2ccc3c(c2)nc(CN2CCC(c4cccc(OCc5ccc(Cl)cc5F)n4)CC2)n3C[C@@H]2CCO2)CCCOC1` (stereo partly drawn) [Compound 196a, N-{2-[(4-{6-[(4-chloro-2-fluorophenyl)methoxy]pyridin-2-yl}piperidin-1-yl)methyl]-1-{[(2S)-oxetan-2-yl]methyl}-1H-1,3-benzodiazol-5-yl}-3-methoxyoxane-3-carboxamide], 1.1 nM. The value for `N#Cc1ccc(COc2cccc(N3CCN(Cc4nc5cc(-c6nnc(C(F)(F)F)[nH]6)nnc5n4C[C@@H]4CCO4)CC3)n2)c(F)c1` [Compound 493a, 3-fluoro-4-{[(6-{4-[(7-{[(2S)-oxetan-2-yl]methyl}-3-[5-(trifluoromethyl)-4H-1,2,4-triazol-3-yl]-7H-imidazo[4,5-c]pyridazin-6-yl)methyl]piperazin-1-yl}pyridin-2-yl)oxy]methyl}benzonitrile] was 0.044 nM; that for `CSc1nnc(-c2ccc3c(c2)nc(CN2CCC(c4cccc5c4OC(C)(c4ccc(Cl)cc4F)O5)CC2)n3C[C@@H]2CCO2)[nH]1` (stereo partly drawn) [Compound 252a, 2-({4-[2-(4-chloro-2-fluorophenyl)-2-methyl-2H-1,3-benzodioxol-4-yl]piperidin-1-yl}methyl)-5-[5-(methylsulfanyl)-4H-1,2,4-triazol-3-yl]-1-{[(2S)-oxetan-2-yl]methyl}-1H-1,3-benzodiazole] was 0.066 nM.

Turning to `N#Cc1ccc(COc2cc(N3CCN(Cc4nc5cc(-c6nnc(C(F)(F)F)[nH]6)ncc5n4C[C@@H]4CCO4)CC3)ccc2F)c(F)c1` [Compound 469a, 3-fluoro-4-[(2-fluoro-5-{4-[(3-{[(2S)-oxetan-2-yl]methyl}-6-[5-(trifluoromethyl)-4H-1,2,4-triazol-3-yl]-3H-imidazo[4,5-c]pyridin-2-yl)methyl]piperazin-1-yl}phenoxy)methyl]benzonitrile], a half-maximal effect (EC50) was put at 0.087 nM. With `Cc1nnc(-c2cc3nc(CN4CCC(c5cccc6c5O[C@@](C)(c5ccc(Cl)cc5F)O6)CC4)n(C[C@@H]4CCO4)c3cn2)[nH]1` [Compound 289a, 4-[(2S)-2-(4-chloro-2-fluorophenyl)-2-methyl-2H-1,3-benzodioxol-4-yl]-1-{[6-(5-methyl-4H-1,2,4-triazol-3-yl)-3-{[(2S)-oxetan-2-yl]methyl}-3H-imidazo[4,5-c]pyridin-2-yl]methyl}piperidine], the EC50 came out at 0.0051 nM.

Compound `CO[C@H](C)Cn1c(CN2CCC(c3cccc4c3O[C@@](C)(c3ccc(Cl)cc3F)O4)CC2)nc2cc(-c3noc(=O)[nH]3)cnc21` [Compound 397a, 3-[2-({4-[(2S)-2-(4-chloro-2-fluorophenyl)-2-methyl-2H-1,3-benzodioxol-4-yl]piperidin-1-yl}methyl)-3-[(2R)-2-methoxypropyl]-3H-imidazo[4,5-b]pyridin-6-yl]-4,5-dihydro-1,2,4-oxadiazol-5-one] displayed an EC50 of 1.3 nM. The compound `C[C@]1(c2ccc(Cl)cn2)Oc2cccc(C3CCN(Cc4nc5cc(-c6noc(=O)[nH]6)nnc5n4C[C@@H]4CCO4)CC3)c2O1` [Compound 463a, 3-[6-({4-[(2S)-2-(5-chloropyridin-2-yl)-2-methyl-2H-1,3-benzodioxol-4-yl]piperidin-1-yl}methyl)-7-{[(2S)-oxetan-2-yl]methyl}-7H-imidazo[4,5-c]pyridazin-3-yl]-4,5-dihydro-1,2,4-oxadiazol-5-one] showed an EC50 of 0.35 nM. For the compound `CC1(c2ccc(Cl)cc2F)Oc2cccc(C3CCN(Cc4nc5cc(C(=O)O)ccc5n4C[C@@H]4CCO4)CC3)c2O1` (stereo partly drawn) [Compound 161a, 2-((4-(2-(4-chloro-2-fluorophenyl)-2-methylbenzo[d][1,3]dioxol-4-yl)piperidin-1-yl)methyl)-1-(((S)-oxetan-2-yl)methyl)-1H-benzo[d]imidazole-5-carboxylic acid], the EC50 worked out at 0.51 nM. Consider `CO[C@H](C)Cn1c(CN2CCC(c3cccc4c3OC(C)(c3ccc(Cl)cn3)O4)CC2)nc2cc(-c3noc(=O)[nH]3)ncc21` (stereo partly drawn) [Compound 427a, 3-[2-({4-[2-(5-chloropyridin-2-yl)-2-methyl-2H-1,3-benzodioxol-4-yl]piperidin-1-yl}methyl)-3-[(2R)-2-methoxypropyl]-3H-imidazo[4,5-c]pyridin-6-yl]-4,5-dihydro-1,2,4-oxadiazol-5-one], for which the EC50 was 0.76 nM.

In turn, `Fc1cc(Cl)ccc1C1COc2cccc(C3CCN(Cc4nc5cc(-c6nnc(C(F)(F)F)[nH]6)ncc5n4C[C@@H]4CCO4)CC3)c2O1` (stereo partly drawn) [Compound 457a, 4-[3-(4-chloro-2-fluorophenyl)-2,3-dihydro-1,4-benzodioxin-5-yl]-1-[(3-{[(2S)-oxetan-2-yl]methyl}-6-[5-(trifluoromethyl)-4H-1,2,4-triazol-3-yl]-3H-imidazo[4,5-c]pyridin-2-yl)methyl]piperidine] showed a 50% effective concentration (EC50) of 0.12 nM. For the compound `CO[C@H](C)Cn1c(CN2CCC(c3cccc4c3O[C@@](C)(c3ccc(Cl)cn3)O4)CC2)nc2cc(-c3noc(=O)[nH]3)ncc21` [Compound 466a, 3-[2-({4-[(2S)-2-(5-chloropyridin-2-yl)-2-methyl-2H-1,3-benzodioxol-4-yl]piperidin-1-yl}methyl)-3-[(2R)-2-methoxypropyl]-3H-imidazo[4,5-c]pyridin-6-yl]-4,5-dihydro-1,2,4-oxadiazol-5-one], the EC50 came to 0.19 nM.

In turn, `C[C@H]1CN(c2ccc(F)c(OCc3ccc(Cl)cc3F)c2)CCN1Cc1nc2cc(-c3nnc(C(F)(F)F)[nH]3)ncc2n1C[C@@H]1CCO1` [Compound 479a, (2S)-4-{3-[(4-chloro-2-fluorophenyl)methoxy]-4-fluorophenyl}-2-methyl-1-[(3-{[(2S)-oxetan-2-yl]methyl}-6-[5-(trifluoromethyl)-4H-1,2,4-triazol-3-yl]-3H-imidazo[4,5-c]pyridin-2-yl)methyl]piperazine] registered an EC50 of 0.1 nM. `CC1(c2ccc(Cl)cc2F)Oc2cccc(C3CCN(Cc4nc5cc(-c6nnc(C(F)(F)F)[nH]6)ccc5n4C[C@@H]4CCO4)CC3)c2O1` (single isomer, unassigned) [Compound 229c]: the 50% effective concentration (EC50) is 0.04 nM.

As to `Fc1cc(Cl)ccc1COc1nc(C2CCN(Cc3nc4cc(-c5nnc(C(F)(F)F)[nH]5)ncc4n3C[C@@H]3CCO3)CC2)ccc1F` [Compound 472a, 2-[(4-chloro-2-fluorophenyl)methoxy]-3-fluoro-6-{1-[(3-{[(2S)-oxetan-2-yl]methyl}-6-[5-(trifluoromethyl)-4H-1,2,4-triazol-3-yl]-3H-imidazo[4,5-c]pyridin-2-yl)methyl]piperidin-4-yl}pyridine], the concentration for a half-maximal effect (EC50) was found to be 0.012 nM.

Usually EC50 stands for the concentration giving half of the maximal effect. The low end stands for greater potency, the high end for weaker potency.
